IC50 data for 21 molecules are collected here from patent publication US8178570B2, “Tie-2 modulators and methods of use” (Exelixis, Inc., priority 2003, dated 2012).

pIC50: −log10 of the molar value.

Sequence of Tie-2 (Q02763 23-1124): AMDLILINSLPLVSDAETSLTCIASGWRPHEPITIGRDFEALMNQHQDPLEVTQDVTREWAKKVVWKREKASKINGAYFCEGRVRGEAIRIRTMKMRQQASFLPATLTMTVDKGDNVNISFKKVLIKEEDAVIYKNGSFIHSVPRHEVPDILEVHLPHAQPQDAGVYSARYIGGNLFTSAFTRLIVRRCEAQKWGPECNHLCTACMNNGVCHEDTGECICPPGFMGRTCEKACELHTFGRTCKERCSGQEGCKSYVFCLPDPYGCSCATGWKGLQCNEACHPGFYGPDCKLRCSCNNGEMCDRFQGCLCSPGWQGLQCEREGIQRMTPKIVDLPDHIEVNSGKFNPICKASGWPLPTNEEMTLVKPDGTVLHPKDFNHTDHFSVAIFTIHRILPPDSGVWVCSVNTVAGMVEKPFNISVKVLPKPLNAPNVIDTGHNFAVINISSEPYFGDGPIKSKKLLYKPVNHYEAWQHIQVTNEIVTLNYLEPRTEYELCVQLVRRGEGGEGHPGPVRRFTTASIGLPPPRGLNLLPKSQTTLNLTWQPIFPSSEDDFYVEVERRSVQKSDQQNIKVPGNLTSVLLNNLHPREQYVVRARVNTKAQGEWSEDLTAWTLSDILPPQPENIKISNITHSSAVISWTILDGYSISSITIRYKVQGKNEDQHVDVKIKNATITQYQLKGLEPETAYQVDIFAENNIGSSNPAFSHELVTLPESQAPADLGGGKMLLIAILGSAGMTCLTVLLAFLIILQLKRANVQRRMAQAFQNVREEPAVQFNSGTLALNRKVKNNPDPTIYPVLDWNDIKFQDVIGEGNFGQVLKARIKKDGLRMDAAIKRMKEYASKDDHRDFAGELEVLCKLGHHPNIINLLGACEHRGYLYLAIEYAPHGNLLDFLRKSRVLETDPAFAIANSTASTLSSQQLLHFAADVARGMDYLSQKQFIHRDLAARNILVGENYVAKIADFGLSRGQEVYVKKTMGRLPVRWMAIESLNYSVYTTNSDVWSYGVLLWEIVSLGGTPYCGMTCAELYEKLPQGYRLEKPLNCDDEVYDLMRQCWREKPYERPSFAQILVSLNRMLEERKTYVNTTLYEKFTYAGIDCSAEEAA

In this assay the target is Tie-2 (Homo sapiens, UniProt Q02763). As to the kind of experiment: Tie-2 tyrosine kinase activity: kinase-dependent ATP consumption (pEY substrate, luciferase/luciferin chemiluminescence) or 33P-ATP incorporation into substrate. In kind it is biochemical. The settings on record: Tie-2 (human enzyme) inhibition, Table 2, class symbols A-D. The method, boiled down:
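Tie-2 kinase activity is read either as ATP consumption with pEY substrate by luciferase/luciferin chemiluminescence, or as 33P incorporation from 33P-ATP into plate-adsorbed substrate by scintillation counting. IC50 values are binned as A <50 nM, B >50–1000 nM, C >1000–<10,000 nM, and D ≥10,000 nM.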
One may read the pIC50 as the IC50 on a negative log10 scale, so that one unit is a factor of ten. Take `COc1ccc(-c2nc(-c3ccncc3)nn2CCN(C(=O)NCCc2ccccc2)C2CCCC2)cc1Cl` [Entry 113, N-(2-{5-[3-chloro-4-(methyloxy)phenyl]-3-pyridin-4-yl-1H-1,2,4-triazol-1-yl}ethyl)-N-cyclopentyl-N′-(2-phenylethyl)urea]: the pIC50 was ≤ 5.00.
With `C=C(C)c1cccc(C(C)(C)NC(=O)N(CCn2nc(-c3ccncc3)nc2-c2ccc(OC)c(Cl)c2)C2CCCC2)c1` [Entry 114, N-(2-{5-[3-chloro-4-(methyloxy)phenyl]-3-pyridin-4-yl-1H-1,2,4-triazol-1-yl}ethyl)-N-cyclopentyl-N′-{1-methyl-1-[3-(1-methylethenyl)phenyl]ethyl}urea] the figure was ≤ 5.00; with `COc1ccc(-c2nc(-c3ccncc3)nn2CCN(C(=O)Nc2ccccc2F)C2CCCC2)cc1Cl` [Entry 115, N-(2-{5-[3-chloro-4-(methyloxy)phenyl]-3-pyridin-4-yl-1H-1,2,4-triazol-1-yl}ethyl)-N-cyclopentyl-N′-(2-fluorophenyl)urea], ≤ 5.00.
Then `COc1ccc(-c2nc(-c3ccncc3)nn2CCN(C(=O)Nc2ccc(F)cc2F)C2CCCC2)cc1Cl` [Entry 116, N-(2-{5-[3-chloro-4-(methyloxy)phenyl]-3-pyridin-4-yl-1H-1,2,4-triazol-1-yl}ethyl)-N-cyclopentyl-N′-(2,4-difluorophenyl)urea], with ≤ 5.00; and `COc1ccc(-c2nc(-c3ccncc3)nn2CCN(C(=O)Nc2c(F)cccc2F)C2CCCC2)cc1Cl` [Entry 117, N-(2-{5-[3-chloro-4-(methyloxy)phenyl]-3-pyridin-4-yl-1H-1,2,4-triazol-1-yl}ethyl)-N-cyclopentyl-N′-(2,6-difluorophenyl)urea], with ≤ 5.00.
With `COc1ccc(-c2nc(-c3ccncc3)nn2CCN(C(=O)Nc2ccccc2Cl)C2CCCC2)cc1Cl` [Entry 118, N-(2-{5-[3-chloro-4-(methyloxy)phenyl]-3-pyridin-4-yl-1H-1,2,4-triazol-1-yl}ethyl)-N′-(2-chlorophenyl)-N-cyclopentylurea] the figure was 5.00 to 6.00; with `COc1ccc(-c2nc(-c3ccncc3)nn2CCN(C(=O)Nc2cccc(Cl)c2Cl)C2CCCC2)cc1Cl` [Entry 119, N-(2-{5-[3-chloro-4-(methyloxy)phenyl]-3-pyridin-4-yl-1H-1,2,4-triazol-1-yl}ethyl)-N-cyclopentyl-N′-(2,3-dichlorophenyl)urea], ≤ 5.00; with `COc1ccc(OC)c(NC(=O)N(CCn2nc(-c3ccncc3)nc2-c2ccc(OC)c(Cl)c2)C2CCCC2)c1` [Entry 120, N′-[2,5-bis(methyloxy)phenyl]-N-(2-{5-[3-chloro-4-(methyloxy)phenyl]-3-pyridin-4-yl-1H-1,2,4-triazol-1-yl}ethyl)-N-cyclopentylurea], ≤ 5.00.
For the molecule `CCOc1ccccc1NC(=O)N(CCn1nc(-c2ccncc2)nc1-c1ccc(OC)c(Cl)c1)C1CCCC1` [Entry 121, N-(2-{5-[3-chloro-4-(methyloxy)phenyl]-3-pyridin-4-yl-1H-1,2,4-triazol-1-yl}ethyl)-N-cyclopentyl-N′-[2-(ethyloxy)phenyl]urea], the pIC50 is 5.00 to 6.00.
Then `COc1ccc(-c2nc(-c3ccncc3)nn2CCN(C(=O)Nc2ccccc2C(F)(F)F)C2CCCC2)cc1Cl` [Entry 122, N-(2-{5-[3-chloro-4-(methyloxy)phenyl]-3-pyridin-4-yl-1H-1,2,4-triazol-1-yl}ethyl)-N-cyclopentyl-N′-[2-(trifluoromethyl)phenyl]urea], with ≤ 5.00.
With `COc1ccc(-c2nc(-c3ccncc3)nn2CCN(C(=O)Nc2c(C)cccc2C)C2CCCC2)cc1Cl` [Entry 123, N-(2-{5-[3-chloro-4-(methyloxy)phenyl]-3-pyridin-4-yl-1H-1,2,4-triazol-1-yl}ethyl)-N-cyclopentyl-N′-(2,6-dimethylphenyl)urea] the figure was ≤ 5.00; with `COc1ccc(-c2nc(-c3ccncc3)nn2CCN(C(=O)Nc2ccc(C(F)(F)F)cc2)C2CCCC2)cc1Cl` [Entry 124, N-(2-{5-[3-chloro-4-(methyloxy)phenyl]-3-pyridin-4-yl-1H-1,2,4-triazol-1-yl}ethyl)-N-cyclopentyl-N′-[4-(trifluoromethyl)phenyl]urea], ≤ 5.00; with `COc1ccc(-c2nc(-c3ccncc3)nn2CCN(C(=O)N[C@@H](C)c2ccccc2)C2CCCC2)cc1Cl` [Entry 125, N-(2-{5-[3-chloro-4-(methyloxy)phenyl]-3-pyridin-4-yl-1H-1,2,4-triazol-1-yl}ethyl)-N-cyclopentyl-N′-[(1S)-1-phenylethyl]urea], 5.00 to 6.00.
Then `COc1ccc(-c2nc(-c3ccncc3)nn2CCN(C(=O)Nc2cc(Cl)c(Cl)cc2Cl)C2CCCC2)cc1Cl` [Entry 126, N-(2-{5-[3-chloro-4-(methyloxy)phenyl]-3-pyridin-4-yl-1H-1,2,4-triazol-1-yl}ethyl)-N-cyclopentyl-N′-(2,4,5-trichlorophenyl)urea], with ≤ 5.00; and `COc1ccc(-c2nc(-c3ccncc3)nn2CCN(C(=O)Nc2cccc(C)c2C)C2CCCC2)cc1Cl` [Entry 127, N-(2-{5-[3-chloro-4-(methyloxy)phenyl]-3-pyridin-4-yl-1H-1,2,4-triazol-1-yl}ethyl)-N-cyclopentyl-N′-(2,3-dimethylphenyl)urea], with 5.00 to 6.00.
Turning to `COc1ccc(-c2nc(-c3ccncc3)nn2CCN(C(=O)Nc2ccc(C)cc2C)C2CCCC2)cc1Cl` [Entry 128, N-(2-{5-[3-chloro-4-(methyloxy)phenyl]-3-pyridin-4-yl-1H-1,2,4-triazol-1-yl}ethyl)-N-cyclopentyl-N′-(2,4-dimethylphenyl)urea], the pIC50 was ≤ 5.00.
Then `COc1ccc(-c2nc(-c3ccncc3)nn2CCN(C(=O)Nc2ccc(C)c(Cl)c2)C2CCCC2)cc1Cl` [Entry 129, N-(2-{5-[3-chloro-4-(methyloxy)phenyl]-3-pyridin-4-yl-1H-1,2,4-triazol-1-yl}ethyl)-N′-(3-chloro-4-methylphenyl)-N-cyclopentylurea], with ≤ 5.00; and `COc1ccc(-c2nc(-c3ccncc3)nn2CCN(C(=O)Nc2c(C)cccc2C(C)(C)C)C2CCCC2)cc1Cl` [Entry 130, N-(2-{5-[3-chloro-4-(methyloxy)phenyl]-3-pyridin-4-yl-1H-1,2,4-triazol-1-yl}ethyl)-N-cyclopentyl-N′-[2-(1,1-dimethylethyl)-6-methylphenyl]urea], with ≤ 5.00.
Then `CCCCOc1ccc(NC(=O)N(CCn2nc(-c3ccncc3)nc2-c2ccc(OC)c(Cl)c2)C2CCCC2)cc1` [Entry 131, N′-[4-(butyloxy)phenyl]-N-(2-{5-[3-chloro-4-(methyloxy)phenyl]-3-pyridin-4-yl-1H-1,2,4-triazol-1-yl}ethyl)-N-cyclopentylurea], with ≤ 5.00.
Then `COc1ccc(-c2nc(-c3ccncc3)nn2CCN(C(=O)Nc2cccc([N+](=O)[O-])c2C)C2CCCC2)cc1Cl` [Entry 132, N-(2-{5-[3-chloro-4-(methyloxy)phenyl]-3-pyridin-4-yl-1H-1,2,4-triazol-1-yl}ethyl)-N-cyclopentyl-N′-(2-methyl-3-nitrophenyl)urea], with ≤ 5.00; and `COc1ccc(-c2nc(-c3ccncc3)nn2CCN(C(=O)Nc2cc(Cl)ccc2Cl)C2CCCC2)cc1Cl` [Entry 133, N-(2-{5-[3-chloro-4-(methyloxy)phenyl]-3-pyridin-4-yl-1H-1,2,4-triazol-1-yl}ethyl)-N-cyclopentyl-N′-(2,5-dichlorophenyl)urea], with ≤ 5.00.
